Source: paper PMC7010297, “How the initiating ribosome copes with ppGpp to translate mRNAs” (PLoS Biology, 2020)
Several values for one entry are separate records, joined by “and”; a condition that tells them apart may be missing. Equal values may be shown once. Read-outs that look alike come from different tables or passages of the source.

Legend:
30S IC [1] = biological target: T1, 30S IC (Escherichia coli, UniProt P0A705); experiment: ppGpp tolerance of 30S IC formation by MST; format: binding; design: 6xHis (N); made in house
Experimental: (§1) Fig 7 SETIs and ppGpp tolerance. (A) Translation initiation efficiency as a function of mRNAs along five steps of transition from NS to S conditions. […] Symbols and error bars represent averages of three replicates and standard deviations, respectively (S1 Data). (C) Comparison of ppGpp tolerance as calculated from the ratio of translation initiation efficiencies found in the presence of 0.2 mM ppGpp over the efficiencies obtained in the absence of the alarmone (S1 Data). […] All 30S IC components are as in Fig 1. Dashed line indicates the average tolerance of all mRNAs lacking the SETI element.

[2] = tested on: mRNA translation (protein synthesis); experiment: In vitro translation in pure cell-free system (PURExpress, Lumio labelling); format: biochemical
Experimental: Fig 5 Permissive ppGpp-mediated inhibition of mRNA translation. (A) Scheme of the translating 70S complex. (B) In vitro translation of mTufA and mInfA derivatives harboring a coding sequence for the Lumio labelling system (Experimental conditions and analysis). […] Synthetized proteins were fluorescently labelled and resolved by 20% SDS-PAGE. The resulting images were analyzed by pixel densitometry using ImageJ [37] to estimate translation efficiencies (TEs). […] (D) Comparison of inhibitory constants for both mRNAs as measured during 30S IC formation (white) or overall translation efficiency (gray). Mean and standard deviations from three measurements are plotted (S1 Data). GTP, guanosine triphosphate; mInfA, InfA mRNA; mTufA, TufA mRNA; TE, translation efficiency.
In order to visualize overall protein synthesis, we used a coupled transcription-translation cell-free system. Reactions were carried out in 10 μL of the purified components from the PURExpress In Vitro Protein Synthesis Kit (E6800S/L, NEB, Ipswich, Massachusetts) with the corresponding templates. These reactions were incubated at 37°C for 2 hours. […] After incubation, sample processing and fluorescent labelling were carried out as described by the Lumio Green Detection Kit (LC6090, ThermoScientific, Waltham, Massachusetts) for in vitro reactions. Finally, 20 μL of labelled samples were loaded into 20% SDS-PAGE gels and visualized under a Blue-light LED transilluminator with orange filter (Cleaver Scientific LTD, Warwickshire, UK). Gel quantification was performed by pixel densitometry analysis using ImageJ software.

30S IC [3] = biological target: T1, 30S IC; conditions: for T. initiation Average / T. initiation Replicates: Fig 7A
Experimental: as §1
The transition towards stringent response entails changes in the composition of all guanosine nucleotides. […] To inquire how the 30S IC responds during the transition from non-stringent (NS) to stringent (S) guanosine nucleotide conditions in the cell, we measured translation initiation along 5 combinations of guanosine nucleotides by thermophoresis, from NS to S conditions (Fig 7A).
The 30S complexes were reconstituted using pure subunits, IFs, tRNAi, mRNA, and nucleotides. The 30S subunits were reactivated by incubation in TAKM20 buffer (as TAKM3.5 but with 20 mM MgCl2) for 1 hour at 37°C prior to use. Generally, 30S ICs were formed by incubation at 37°C for 30 minutes in TAKM7 using 1 μM 30S subunits, 4 μM mRNA, 2 μM IF1, 1 μM IF2, 1.5 μM IF3, 0.5 μM Bpy-Met-tRNA^fMet, and 0.2 mM guanosine nucleotides, unless otherwise stated in the Results or figure captions. Ligand titrations were prepared using serial dilutions using 1:1 mixing of complexes containing the highest concentration of the titrant with complexes lacking only the ligand under investigation. The number of reactions were set up to cover a wide range of concentrations.
MST was measured on 10-μL reactions using standard capillaries (MO-K022, NanoTemper Technologies, Munich, Germany) on a Monolith NT.115 (NanoTemper Technologies, Munich, Germany) at monochromatic LED with power input of 30% and IR laser power of 40%. The local temperature perturbation was expected to be less than 3°C. All measurements were performed at room temperature (22 ± 2°C). Three to four replicates were measured for each investigated reaction to calculate mean and standard deviation. […] KD were calculated using a hyperbolic or quadratic function using Graphpad Prism 6.0 (GraphPad, San Diego, California) or software provided by NanoTemper.

[4] = tested on: mRNA translation (protein synthesis); experiment: In vitro translation in pure cell-free system (PURExpress, Lumio labelling); format: biochemical; conditions: 2 mM ppGpp; Fig 6G

T1 sequence (P0A705 whole entry, looked up): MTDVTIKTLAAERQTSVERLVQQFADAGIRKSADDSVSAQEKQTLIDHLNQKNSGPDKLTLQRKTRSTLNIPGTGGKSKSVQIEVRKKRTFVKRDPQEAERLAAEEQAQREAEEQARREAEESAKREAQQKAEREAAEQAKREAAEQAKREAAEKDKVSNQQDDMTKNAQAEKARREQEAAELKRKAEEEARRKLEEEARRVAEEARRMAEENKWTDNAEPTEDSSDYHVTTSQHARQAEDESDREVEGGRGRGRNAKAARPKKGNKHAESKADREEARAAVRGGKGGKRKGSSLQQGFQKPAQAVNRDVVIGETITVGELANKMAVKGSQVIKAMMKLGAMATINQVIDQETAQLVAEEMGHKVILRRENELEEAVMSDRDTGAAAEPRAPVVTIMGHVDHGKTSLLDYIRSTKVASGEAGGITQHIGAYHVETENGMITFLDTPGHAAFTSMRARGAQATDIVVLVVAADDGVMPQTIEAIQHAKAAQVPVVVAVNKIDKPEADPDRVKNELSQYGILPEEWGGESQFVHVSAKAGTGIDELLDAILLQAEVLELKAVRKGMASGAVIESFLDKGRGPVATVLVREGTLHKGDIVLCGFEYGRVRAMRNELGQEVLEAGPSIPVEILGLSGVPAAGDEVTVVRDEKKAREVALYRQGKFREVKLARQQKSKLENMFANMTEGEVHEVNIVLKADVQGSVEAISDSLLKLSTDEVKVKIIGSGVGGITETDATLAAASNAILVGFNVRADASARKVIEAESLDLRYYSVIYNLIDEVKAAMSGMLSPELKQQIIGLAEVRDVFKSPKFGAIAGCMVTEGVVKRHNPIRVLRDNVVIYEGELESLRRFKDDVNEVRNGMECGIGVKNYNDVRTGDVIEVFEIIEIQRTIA

Molecule: Nc1nc2c(ncn2[C@@H]2O[C@H](COP(=O)(O)OP(=O)(O)O)[C@@H](OP(=O)(O)OP(=O)(O)O)[C@H]2O)c(=O)[nH]1 [ppGpp]
- Ki (30S IC [1]; mRNA mInfA, read-out: 30S IC Ki (μM), replicates): 0.598 µM and 0.576 µM and 0.587 µM
- Ki (30S IC [1]; mRNA mInfA, read-out: 30S IC Ki Average): 0.587 µM
- Ki (30S IC [1]; mRNA mTufA, read-out: 30S IC Ki (μM), replicates): 2.19 µM and 2.21 µM and 2.22 µM
- Ki (30S IC [1]; mRNA mTufA, read-out: 30S IC Ki Average): 2.21 µM
- P.D. Average ([2]; mInfA, Log [ppGpp] 1.00): 2.85 a.u.x10^4
- P.D. Replicates (a.u.x10^4) ([2]; mInfA, Log [ppGpp] 1.00): 2.78 a.u.x10^4 and 2.92 a.u.x10^4 and 2.86 a.u.x10^4
- P.D. Average ([2]; mInfA, Log [ppGpp] 2.40): 2.28 a.u.x10^4
- P.D. Replicates (a.u.x10^4) ([2]; mInfA, Log [ppGpp] 2.40): 2.16 a.u.x10^4 and 2.34 a.u.x10^4 and 2.33 a.u.x10^4
- P.D. Average ([2]; mInfA, Log [ppGpp] 2.70): 1.67 a.u.x10^4
- P.D. Replicates (a.u.x10^4) ([2]; mInfA, Log [ppGpp] 2.70): 1.54 a.u.x10^4 and 1.80 a.u.x10^4 and 1.68 a.u.x10^4
- P.D. Average ([2]; mInfA, Log [ppGpp] 3.00): 0.00 a.u.x10^4
- P.D. Replicates (a.u.x10^4) ([2]; mInfA, Log [ppGpp] 3.00): 0.00 a.u.x10^4
- P.D. Average ([2]; mInfA, Log [ppGpp] 3.30): 0.00 a.u.x10^4
- P.D. Replicates (a.u.x10^4) ([2]; mInfA, Log [ppGpp] 3.30): 0.00 a.u.x10^4
- P.D. Average ([2]; mInfA, Log [ppGpp] 3.60): 0.00 a.u.x10^4
- P.D. Replicates (a.u.x10^4) ([2]; mInfA, Log [ppGpp] 3.60): 0.00 a.u.x10^4
- Ki ([2]; mRNA mInfA, read-out: Translation Efficiency Ki (μM), replicates): 0.816 µM and 0.72 µM and 0.838 µM
- Ki ([2]; mRNA mInfA, read-out: Translation Efficiency Ki Average): 0.791 µM
- Ki ([2]; mRNA mTufA, read-out: Translation Efficiency Ki (μM), replicates): 2.23 µM and 2.32 µM and 2.09 µM
- Ki ([2]; mRNA mTufA, read-out: Translation Efficiency Ki Average): 2.21 µM
- P.D. Average ([2]; mTufA, Log [ppGpp] 1.00): 6.41 a.u.x10^4
- P.D. Replicates (a.u.x10^4) ([2]; mTufA, Log [ppGpp] 1.00): 6.33 a.u.x10^4 and 6.50 a.u.x10^4 and 6.41 a.u.x10^4
- P.D. Average ([2]; mTufA, Log [ppGpp] 2.40): 5.17 a.u.x10^4
- P.D. Replicates (a.u.x10^4) ([2]; mTufA, Log [ppGpp] 2.40): 5.12 a.u.x10^4 and 5.25 a.u.x10^4 and 5.15 a.u.x10^4
- P.D. Average ([2]; mTufA, Log [ppGpp] 2.70): 4.76 a.u.x10^4
- P.D. Replicates (a.u.x10^4) ([2]; mTufA, Log [ppGpp] 2.70): 4.72 a.u.x10^4 and 4.86 a.u.x10^4 and 4.70 a.u.x10^4
- P.D. Average ([2]; mTufA, Log [ppGpp] 3.00): 3.38 a.u.x10^4
- P.D. Replicates (a.u.x10^4) ([2]; mTufA, Log [ppGpp] 3.00): 3.31 a.u.x10^4 and 3.47 a.u.x10^4 and 3.35 a.u.x10^4
- P.D. Average ([2]; mTufA, Log [ppGpp] 3.30): 2.72 a.u.x10^4
- P.D. Replicates (a.u.x10^4) ([2]; mTufA, Log [ppGpp] 3.30): 2.68 a.u.x10^4 and 2.81 a.u.x10^4 and 2.66 a.u.x10^4
- P.D. Average ([2]; mTufA, Log [ppGpp] 3.60): 1.21 a.u.x10^4
- P.D. Replicates (a.u.x10^4) ([2]; mTufA, Log [ppGpp] 3.60): 1.18 a.u.x10^4 and 1.24 a.u.x10^4 and 1.21 a.u.x10^4

B1: mTufA: TufA mRNA with full-length 5′ UTR, in vitro transcribed, codes for EF-Tu (nucleic acid)
chain: GGUUCUAUCGCCUUUAAAGAAGGCUUUAAGAAAGCGAAACCAGUUCUGCUUGAGCCGAUCAUGAAGGUUGAAGUAGAAACUCCGGAAGAGAACACCGGUGACGUUAUCGGUGACUUGAGCCGUCGUCGUGGUAUGCUCAAAGGUCAGGAAUCUGAAGUUACUGGCGUUAAGAUCCACGCUGAAGUACCGCUGUCUGAAAUGUUCGGAUACGCAACUCAGCUGCGUUCUCUGACCAAAGGUCGUGCAUCAUACACUAUGGAAUUCCUGAAGUAUGAUGAAGCGCCGAGUAACGUUGCUCAGGCCGUAAUUGAAGCCCGUGGUAAAUAAGCCUAAGGGUUAAUACCAAAGUCCCGUGCUCUCUCCUGAAGGGGAGAGCACUAUAGUAAGGAAUAUAGCCGUGUCUAAAGAAAAAUUUGAACG
- T. initiation Average (30S IC [3]; NS to S 1): 81.23%
- T. initiation Replicates (30S IC [3]; NS to S 1): 79.55% and 82.59% and 81.55%
- T. initiation Average (30S IC [3]; NS to S 2): 75.89%
- T. initiation Replicates (30S IC [3]; NS to S 2): 72.98% and 77.43% and 77.26%
- T. initiation Average (30S IC [3]; NS to S 3): 60.14%
- T. initiation Replicates (30S IC [3]; NS to S 3): 59.08% and 60.37% and 60.97%
- T. initiation Average (30S IC [3]; NS to S 4): 45.96%
- T. initiation Replicates (30S IC [3]; NS to S 4): 44.86% and 46.36% and 46.65%
- T. initiation Average (30S IC [3]; NS to S 5): 23.01%
- T. initiation Replicates (30S IC [3]; NS to S 5): 22.61% and 23.62% and 22.79%
- translation initiation efficiency (30S IC formation retained) at S conditions (30S IC [3]; S: 1 mM ppGpp, 0.25 mM pppGpp, 0.14 mM GTP, 0.05 mM GDP): 25%
- ppGpp tolerance (30S IC [1]; 30S ICs with 4-fold excess of ppGpp (0.2 mM) over GTP vs without alarmone): up to 25%
- Translation Avg ([2]; 2 mM ppGpp, Fig 6G): 0.27 a.u.
- Translation Avg ([2]; No ppGpp, Fig 6G): 0.83 a.u.
- Translation Replicate ([2]; No ppGpp, Fig 6G): 0.83 a.u.
- translation higher than mInfA ([2]; in the absence of ppGpp): 3 fold
- Translation Replicate [4]: 0.27 a.u.
